System: Salmonella typhimurium
Assay: Bacterial proliferation assay (inhibition halo on agar plates)
Assay type: cell-based
Conditions: before vs after passage through the ionic therapeutic contact lenses; 2×10^9/mL bacteria on agar-coated plates; 24 hours; FIG. 4
Description: The influence of lens interaction on the antibacterial effect of chloramphenicol was tested with a bacterial challenge using Salmonella typhimurium seeding 2×10^9/mL bacteria on agar-coated plates. An antibiotic disk was inserted in the middle of the plate to verify the inhibition halo around the dish after 24 hours. Both the chloramphenicol eye drops and the liquid suspending the therapeutic lenses for storage were tested. The antibacterial capacity of chloramphenicol was comparatively tested before and after the passage through the ionic therapeutic contact lenses according to the invention. The diameter of the clear halo around the chloramphenicol depot area (central white spot) was not different.

Compound: O=C(N[C@H](CO)[C@H](O)c1ccc([N+](=O)[O-])cc1)C(Cl)Cl [chloramphenicol]
- diameter of the clear halo around the chloramphenicol depot area: not different

Source: patent publication US20260235789A1, “THERAPEUTIC LENSES FOR USE AS OCULAR BANDAGE AND SIMULTANEOUSLY FOR THE ADMINISTRATION OF EYE DROPS” (EYE PHARMA SPA, priority 2021, published 2026)
